# Measured values as given in patent US12453708B2, “Aminonaphthoquinone compounds for treatment and/or prevention of fibrosis diseases” (CALGENT BIOTECHNOLOGY CO., LTD., priority 2015, dated 2025).
# System: TGF-β-induced collagen expression in WI-38 cells
# Experiment: TGF-β-induced collagen expression in WI-38 cells (Western blot, immunofluorescence)
# Type: cell-based, human
# Settings: WI-38 lung fibroblasts, 0.3, 1, 3 or 10 μM, TGF-β (10 ng/mL)
# Procedure: FIGS. 4 (A), (B) and (C) show the effect of L056 on TGF-β-induced collagen expression in WI-38 cells. WI-38 lung fibroblasts were incubated with different concentrations of L056 (0.3, 1, 3 or 10 μM) for 30 min before and during incubation for 2 h with TGF-β (10 ng/mL). […] (A), Western blot plot; (B), Quantitative assay of Western blot; (C), Immunofluorescence plot. WI-38 cells, a normal human embryonic lung fibroblast cell line, were obtained from American Type Culture Collection (Manassas, VA). Cells were grown in MEM nutrient mixture, containing 10% FCS, 2 mM L-glutamine, 0.1 mM NEAA, 1 mM sodium pyruvate, 50 U/ml penicillin G, and 100 µg/ml streptomycin, in a humidified 37° C. incubator with 5% CO2 Cells were used between passages 18 and 30 for all experiments. After reaching confluence, cells were seeded onto 6-cm dishes for immunoblotting. Western blot analyses were performed as described previously (Chen B C, Chang Y S, Kang J C, Hsu M J, Sheu J R, Chen T L, et al. Peptidoglycan induces nuclear factor-kappaB activation and cyclooxygenase-2 expression via Ras, Raf-1, and ERK in RAW 264.7 macrophages. J Biol Chem 2004; 279:20889-97). […] The immunoreactivity was detected using enhanced chemiluminescence (ECL) following the manufacturer's instructions. Quantitative data were obtained using a computing densitometer with scientific imaging systems (Kodak, Rochester, NY). […]
smiles,measurement,setting,value
"O=C(Nc1ccncc1)c1ccc(CNC2=C(Cl)C(=O)c3ccccc3C2=O)cc1 [Example L056, 4-(((3-chloro-1,4-dioxo-1,4-dihydronaphthalen-2-yl)amino)methyl)-N-(pyridin-4-yl)benzamide]",TGF-β-induced collagen production/expression,,significantly inhibited
same,TGF-β-induced collagen production/expression,listed as MPTOL056,inhibited
